Measured values from PMC10419174, “WR1065 conjugated to thiol-PEG polymers as novel anticancer prodrugs: broad spectrum efficacy, synergism, and drug resistance reversal” (Frontiers in Oncology, 2023).
Values joined by “and” are separate entries in the source; they are usually repeats but may differ in a detail not shown here. Equal entries are not always repeated. Marks after values point to notes of the source that are not given here.

What was measured:
[1] = Solubility, storage and stability of 4SP65 and 1LP65; type: physicochemical
Protocol: prepared for use and that was not altered by the solvent used, heating up to 37 °C for up to 3 days, and shaking or rocking for up to 3 days at RT or 4°C. For experiment, an aliquot of drug was first mixed in medium, the solvent was removed and saved, and gel pieces were recovered, dried on a vacuum pump, […]
The difference in the starting weight of drug placed into solvent minus the weight of the residue after drying on a vacuum pump was considered to represent the amount of drug that went into solution. The amount of drug that was dissolved at a given time ranged from 40 to 61%, averaging 50.7 ± 8.1% (SD). The weight of the 4SP65 in solution was then used for diluting the drug to concentrations of 200 or 400 µM in supplemented RPMI or DMEM/F12 medium for routine treatment of cells. The dried residue was not used in the in vitro drug efficacy studies. The formation of a gel in the aqueous solvents tested was unexpected since […]
few free thiols in polymer arms of the PEG scaffold for cross-linking reactions to occur. However, unintended topical entanglements between polymer chains of multi-arm PEG-thiol molecules without disulfide formation have been reported (Tang and Bradley 2014 24860800). Aliquots of 4SP65 dissolved in FBS enriched medium has remained stable for >6 months while remnants of the original viscous polymer have maintained stability without any apparent loss of activity when stored for 60 […]
However, the bulk of the product was dissolved at 40 mM in DMSO and stored in aliquots at −80°C for future use once by further dilution in DMSO and then final dilution in medium for treatment of normal human epithelium and human cancer cell lines at working solutions of 4 mM or 400 µM drug. 1LP65 has maintained stability for six months in frozen aliquots but should be stable in DMSO at −80°C for two to three years based upon recommended storage conditions for cystamine dihydrochloride (Selleck Chemical product information), an analogous 225 Da compound with a disulfide bond and amine groups like 1LP65. […]

Ovary TOV21G cells = assay: cells; settings: for Fold increase in efficacy: drug alone ÷ drug in 4SP65-DDP combination
Protocol: (§1) The percentage of growth inhibition was calculated as follows: […]

Ovary SKOV3 cells = assay: cells; settings: for Fold increase in efficacy: drug alone ÷ drug in 4SP65-DDP combination
Protocol: as §1

NCI-H1975 NSCLC cells = assay: cells
Protocol: as §1

Prostate PC3 cells = assay: cells
Protocol: as §1

[2] = aqueous solvents/medium, remainder formed a gel
[3] = 48-h treatment, amifostine ND = not definable up to 500 µM
[4] = drug alone, 48 h, 4SP65/cisplatin study
[5] = drug alone, 48 h, 4SP65/cisplatin study, ND = not definable, highest concentration in parentheses

For 4-star-PEG-S-S-WR1065 [4SP65], the “highest level testable based upon maximum solubility in aqueous medium” value [1] was 150 µM, the “storage time with maintained stability without apparent loss of activity” value [1] was 60 months and the time remained stable ([1]; aliquots dissolved in FBS enriched medium) was > 6 months. The “amount of drug dissolved at a given time, average (SD)” value [1, 2] was 50.7 ± 8.1%, the “amount of drug dissolved at a given time, range” value [1, 2] was 40 to 61% and the CC50 (Ovary TOV21G cells) was 2.7 µM. The “gains in total growth inhibition and cytolytic effects, range” value (Ovary TOV21G cells; 4SP65-cisplatin combined) was 2.4- to 3.2 fold, the GI50 (Ovary TOV21G cells; [3]) was 0.9 ± 0.4 µM and the IC50 (Ovary TOV21G cells; [3]) was 1.2 ± 0.3 µM. The TGI (Ovary TOV21G cells; [3]) was 2.0 ± 0.4 µM, the “LC99, drug in combination (CMB)” value (Ovary TOV21G cells; amount of each drug in combination, ratio 14% 4SP65:86% DDP, 48 h) was 0.95 µM and the “Dose reduction value 1LP65 ÷ 4SP65” value (Ovary TOV21G cells; at GI50) was 24 fold. The “Dose reduction value AMF ÷ 4SP65” value (Ovary TOV21G cells; at GI50) was 52 fold, the “Dose reduction value 1LP65 ÷ 4SP65” value (Ovary TOV21G cells; at IC50) was 22 fold and the “Dose reduction value AMF ÷ 4SP65” value (Ovary TOV21G cells; at IC50) was 41 fold. For the same substance, the “Dose reduction value 1LP65 ÷ 4SP65” value (Ovary TOV21G cells; at LC50) was 19 fold, the “Dose reduction value 1LP65 ÷ 4SP65” value (Ovary TOV21G cells; at LC99) was 31 fold and the “Dose reduction value 1LP65 ÷ 4SP65” value (Ovary TOV21G cells; at TGI) was 27 fold. The “Fold increase in efficacy” value (Ovary TOV21G cells; at GI50) was 2.3 (NS) fold, the “Fold increase in efficacy” value (Ovary TOV21G cells; at IC50) was 1.9 (NS) fold and the “Fold increase in efficacy” value (Ovary TOV21G cells; at LC50) was 3.0*** fold. The “Fold increase in efficacy” value (Ovary TOV21G cells; at LC99) was 3.2*** fold, the “Fold increase in efficacy” value (Ovary TOV21G cells; at TGI) was 2.4* fold and the GI50 (Ovary TOV21G cells; [4]) was 0.93 ± 0.37 µM. For the same substance, the IC50 (Ovary TOV21G cells; [4]) was 1.2 ± 0.3 µM, the LC99 (Ovary TOV21G cells; [4]) was 3.0 µM and 3.0 ± 0.2 µM and the TGI (Ovary TOV21G cells; [4]) was 2.0 ± 0.4 µM. The GI50 (Ovary SKOV3 cells; [3]) was 4 ± 0.8 µM, the IC50 (Ovary SKOV3 cells; [3]) was 5.1 ± 0.9 µM and the LC99 (Ovary SKOV3 cells; [3]) was 10.5 ± 1.5 µM. The TGI (Ovary SKOV3 cells; [3]) was 6.8 ± 0.9 µM and 6.8 µM, the “fold more effective as a cytostatic agent than PRIMA-1 or APR-246” value (Ovary SKOV3 cells; TP53-null SKOV3 cells) was 3.3- to 16 fold and the “Dose reduction value 1LP65 ÷ 4SP65” value (Ovary SKOV3 cells; at GI50) was 10 fold. The “Dose reduction value AMF ÷ 4SP65” value (Ovary SKOV3 cells; at GI50) was 20 fold, the “Dose reduction value 1LP65 ÷ 4SP65” value (Ovary SKOV3 cells; at IC50) was 8.9 fold and the “Dose reduction value AMF ÷ 4SP65” value (Ovary SKOV3 cells; at IC50) was 58 fold. For the same substance, the “Dose reduction value 1LP65 ÷ 4SP65” value (Ovary SKOV3 cells; at LC50) was 7.5 fold, the “Dose reduction value 1LP65 ÷ 4SP65” value (Ovary SKOV3 cells; at LC99) was 9.4 fold and the “Dose reduction value 1LP65 ÷ 4SP65” value (Ovary SKOV3 cells; at TGI) was 7.4 fold. The “Fold increase in efficacy” value (Ovary SKOV3 cells; at GI50) was 1.5** fold, the “Fold increase in efficacy” value (Ovary SKOV3 cells; at IC50) was 1.8** fold and the “Fold increase in efficacy” value (Ovary SKOV3 cells; at LC50, GoE = gain of effect) was 1.3** fold. For the same substance, the “Fold increase in efficacy” value (Ovary SKOV3 cells; at LC99, GoE = gain of effect) was 1.3* fold, the “Fold increase in efficacy” value (Ovary SKOV3 cells; at TGI, GoE = gain of effect) was 1.5* fold and the GI50 (Ovary SKOV3 cells; [4]) was 4.3 ± 1 µM. For the same substance, the IC50 (Ovary SKOV3 cells; [4]) was 5.2 ± 1 µM, the LC99 (Ovary SKOV3 cells; [5]) was 10.0 ± 0.8 µM and the TGI (Ovary SKOV3 cells; [5]) was 7.3 ± 0.8 µM. The CC50 (NCI-H1975 NSCLC cells) was 7.6 ± 1.3 µM, the GI50 (NCI-H1975 NSCLC cells; [3]) was 3.1 ± 0.6 µM and the IC50 (NCI-H1975 NSCLC cells; [3]) was 4.2 ± 1 µM. For the same substance, the LC99 (NCI-H1975 NSCLC cells; [3]) was 9.3 ± 1.1 µM, the TGI (NCI-H1975 NSCLC cells; [3]) was 5.2 ± 0.9 µM and the “Dose reduction value 1LP65 ÷ 4SP65” value (NCI-H1975 NSCLC cells; at GI50) was 13 fold. The “Dose reduction value AMF ÷ 4SP65” value (NCI-H1975 NSCLC cells; at GI50) was 42 fold, the “Dose reduction value 1LP65 ÷ 4SP65” value (NCI-H1975 NSCLC cells; at IC50) was 13 fold and the “Dose reduction value 1LP65 ÷ 4SP65” value (NCI-H1975 NSCLC cells; at LC50) was 8.3 fold. The “Dose reduction value 1LP65 ÷ 4SP65” value (NCI-H1975 NSCLC cells; at LC99) was 9.3 fold, the “Dose reduction value 1LP65 ÷ 4SP65” value (NCI-H1975 NSCLC cells; at TGI) was 10 fold and the CC50 (Prostate PC3 cells) was 4.5 ± 0.6 µM. For the same substance, the GI50 (Prostate PC3 cells; [3]) was 0.7 ± 0.2 µM, the IC50 (Prostate PC3 cells; [3]) was 2 ± 0.3 µM and the LC99 (Prostate PC3 cells; [3]) was 5.8 ± 0.8 µM. The TGI (Prostate PC3 cells; [3]) was 2.1 ± 0.5 µM and 2.1 µM, the “Dose reduction value 1LP65 ÷ 4SP65” value (Prostate PC3 cells; at GI50) was 25 fold and the “Dose reduction value AMF ÷ 4SP65” value (Prostate PC3 cells; at GI50) was 58 fold. The “Dose reduction value 1LP65 ÷ 4SP65” value (Prostate PC3 cells; at IC50) was 19 fold.
